# Results taken from patent US20250368619A1, “SUBSTITUTED TETRAHYDROCYCLOHEPTA[E]INDOLE DERIVATIVES, PROCESSES FOR THEIR PREPARATION AND THERAPEUTIC USES THEREOF” (SANOFI, priority 2022, published 2025).
# Biological target: T1, ERα (Homo sapiens, UniProt P03372)
# T1 construct: host or cells: MCF7
# T1 sequence (P03372 1-595): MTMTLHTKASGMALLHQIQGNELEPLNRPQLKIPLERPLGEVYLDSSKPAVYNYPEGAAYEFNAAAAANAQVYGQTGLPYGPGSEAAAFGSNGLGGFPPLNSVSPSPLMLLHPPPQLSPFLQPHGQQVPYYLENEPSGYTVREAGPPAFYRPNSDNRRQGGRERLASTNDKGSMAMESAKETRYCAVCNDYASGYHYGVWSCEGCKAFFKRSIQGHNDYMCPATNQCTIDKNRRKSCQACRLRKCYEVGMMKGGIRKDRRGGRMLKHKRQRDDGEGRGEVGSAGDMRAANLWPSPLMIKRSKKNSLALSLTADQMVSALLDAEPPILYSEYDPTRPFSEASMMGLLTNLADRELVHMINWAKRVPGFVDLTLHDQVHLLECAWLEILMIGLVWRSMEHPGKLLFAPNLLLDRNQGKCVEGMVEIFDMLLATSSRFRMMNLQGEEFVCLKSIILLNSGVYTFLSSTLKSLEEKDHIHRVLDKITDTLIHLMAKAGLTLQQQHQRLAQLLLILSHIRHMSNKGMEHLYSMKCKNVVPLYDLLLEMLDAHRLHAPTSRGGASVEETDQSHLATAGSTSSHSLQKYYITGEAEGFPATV
# Test: Estrogen receptor degradation activity: breast cancer cell ERα in cell western assay in MCF7 cells
# Assay type: cell-based
# Conditions: 4 hours, relative to fulvestrant 0.1 μM positive control
# Description: Test: Estrogen receptor degradation activity
# Said test involves measuring the in vitro degradation activity of the compounds of the table 1.
# The measurements of the degradation activities were made using a breast cancer cell ERα in cell western assay as described hereunder.
# MCF7 cells (ATCC) were seeded in 384 wells microplate (collagen coated) at a concentration of 10000 cells/30 μL per well in red phenol free MEM alpha medium (invitrogen) containing 5% charcoal dextran striped FBS. The following day, 9 points serial 1:5 dilution of each compound was added to the cells in 2.5 μL at final concentrations ranging from 0.3-0.0000018 μM (in table 2), or 0.1 μM for fulvestrant (using as positive control). At 4 hours post compound addition the cells were fixed by adding 25 μL of formalin (final concentration 5% formalin containing 0.1% triton) for 10 minutes at RT and then washed twice with PBS. Then, 50 μL of LI-COR blocking buffer containing 0.1% Triton was added to plate for 30 minutes at RT. LI-COR blocking buffer was removed and cells were incubated overnight at cold room with 50 μL anti-ER rabbit monoclonal antibody (Thermo scientific MA1-39540) diluted at 1:1000 in LI-COR blocking buffer containing 0.1% tween-20. Wells which were treated with blocking buffer but no antibody were used as background control. Wells were washed twice with PBS (0.1% tween-20) and incubated at 37° C. for 60 minutes in LI-COR (0.1% tween-20) containing goat anti-rabbit antibody Alexa 488 (1:1000) and Syto-64 a DNA dye (2 μM final concentration). Cells were then washed 3 times in PBS and scanned in ACUMEN explorer (TTP-Labtech). Integrated intensities in the green fluorescence and red fluorescence were measured to determine the levels of ERα and DNA respectively.
# The degradation activity with respect to estrogen receptors in this test is given by the concentration which degrades 50% of the estrogen receptor (or IC50) in nM.
# The % of ERα levels decrease were determined as follows: % inhibition=100*(1−(sample−fulvestrant:DMSO−fulvestrant)).
row,% Degradation At 0.3 μM [%],Compound
1,91,"Cc1c(Cl)cccc1C1=C(c2ccc(OC3CN(CCCF)C3)cc2)c2ccc3[nH]ccc3c2CCC1 [Compound 26, 7-(3-chloro-2-methylphenyl)-6-(4-((1-(3-fluoropropyl)azetidin-3-yl)oxy)phenyl)-3,8,9,10-tetrahydrocyclohepta[e]indole]"
2,91,"Cc1c(Cl)cccc1C1=C(c2ccc(NC3CN(CCCF)C3)cc2)c2ccc3[nH]ccc3c2CCC1 [Compound 27, N-(4-(7-(3-chloro-2-methylphenyl)-3,8,9,10-tetrahydrocyclohepta[e]indol-6-yl)phenyl)-1-(3-fluoropropyl)azetidin-3-amine]"
3,91,"Cc1c(Cl)cccc1C1=C(c2ccc(N[C@H]3CCN(CCCF)C3)cc2)c2ccc3[nH]ccc3c2CCC1 [Compound 28, (S)-N-(4-(7-(3-chloro-2-methylphenyl)-3,8,9,10-tetrahydrocyclohepta[e]indol-6-yl)phenyl)-1-(3-fluoropropyl)pyrrolidin-3-amine]"

# Second part, the molecule before the results:
row,Compound,% Degradation At 0.3 μM [%]
1,"OCCCC1=C(c2ccc(CC3CN(CCCF)C3)cc2)c2ccc3[nH]ccc3c2CCC1 [Compound 25, 3-(6-(4-((1-(3-fluoropropyl)azetidin-3-yl)methyl)phenyl)-3,8,9,10-tetrahydrocyclohepta[e]indol-7-yl)propan-1-ol]",75
2,"Cc1c(Cl)cccc1C1=C(c2ccc(/C=C3/CCN(CCCF)C3)cc2)c2ccc3[nH]ccc3c2CCC1 [Compound 29, (Z)-7-(3-chloro-2-methylphenyl)-6-(4-((1-(3-fluoropropyl)pyrrolidin-3-ylidene)methyl)phenyl)-3,8,9,10-tetrahydrocyclohepta[e]indole]",91
